# How the values were obtained:
# [1] = tested on: mice; assay: One month treatment toxicity in mice (pathology report); assay type: in vivo, mouse; conditions: one month treatment (Additional file 1)
# Procedure: Casp6 transgenic mouse model: All animal procedures followed the Canadian Council on Animal Care guidelines and were approved by the McGill Animal care committees. Sixteen to 20 month old C57BL/6 J mice were bred and aged in the pathogen-free Goodman Cancer Research Centre Mouse Transgenic Facility at McGill University. Mice were housed in a temperature-controlled room at 22 °C and were kept on a 12 h light/dark cycle. Food and water were available at libitum. Casp6 overexpressing mice (KI/Cre) express Casp6p20p10 under the CAG promoter (CMV immediate early enchancer/chicken β-actin promoter fusion) in the CA1 pyramidal cell layer of the hippocampus under the control of calmodulin kinase IIa (CAMKIIa)-regulated Cre expression.
# Additional file 1: Pathology report. Contains pharmacokinetic and toxicological analysis of CD-1 mice treated with NWL-117 for 28 days every 3 days. (PDF 3742 kb) Additional file 2: Figures S1-S4. Contains additional information to complement Figs. 3, 4, and 6 of the manuscript. (PDF 463 kb)
# [2] = tested on: mice hippocampi; assay: Hippocampal Casp6 substrates, synaptic and glial markers after treatment (western blot, immunohistochemistry); assay type: in vivo, mouse
# Text: Protein extracts from HCT116 cells and human primary neurons were subjected to western blotting analyses. The 10630 (1:10 000) and GN60622 (1:10 000) neoepitope antibodies against the p20 subunit of active Casp6 (Casp6p20) and α-tubulin cleaved by Casp6 (TubΔCasp6) were generated previously in our laboratory. The β-actin clone AC-15 (1:5 000, Sigma-Aldrich, Oakville, ON, CA), Casp6 (1:1 000), Synapsin (1:5 000), full-length α-tubulin (1:1 000, Cell Signalling Technology Inc., Danvers, MA, USA), GFAP (1:3 000, Dako, Burlington, ON, CA), synaptophysin (1:5 000, Sigma, Oakville, ON, CA), and PSD95 clone K28143 (1:5 000, UC Davis/NIH NeuroMab Facility) were purchased. All antibodies were diluted in 5% non-fat dry milk. Secondary anti-mouse (1:5 000, GE Healthcare Life Sciences, Baie D’Urfe, QC, CA) and anti-rabbit antibodies (1:5 000, Dako, Burlington, ON, CA) conjugated to horseradish peroxidase were used to detect immunoreactive proteins using ECL prime western blotting detection reagent (GE Healthcare Life Sciences, Baie D’Urfe, QC, CA) and Kodak BioMax MR film (Kodak, Rochester, NY, USA). Secondary anti-mouse conjugated to alkaline phosphatase (Jackson Immunoresearch Laboratories Inc., West Grove, PA) was developed with nitro-blue tetrazolium (Thermo Fisher Scientific, Waltham, MA, USA) and 5-bromo-4-chloro-3-indolylphosphate (Thermo Fisher Scientific, Waltham, MA, USA) for chromogenic detection of proteins. The western blots were scanned with an HP scanner and the images were not manipulated except to adjust the brightness/contrast and this was done simultaneously to the entire blot. Quantification was performed with the ImageJ software (NIH, Bethesda, MD, USA).
# Only males were used and littermates from each genotype (wild type (WT)/WT, WT/Cre, & knock-in (KI/)Cre) were tested together. The experimenter was blind to genotype and treatment groups. Mice were administered 20 mg/kg NWL-117 or physiological saline (0.9% NaCl) by intraperitoneal injections two times 48 h apart. […] Blood brain barrier permeability of NWL-117 caspase inhibitor: Briefly, 18–22 month old Casp6 mice were anesthetised with isoflurane, warmed with a heating blanket, and their physiological vitals (heart rate, body temperature, and respiration) monitored. The skin over the mouse’s neck was shaved, xylocaine applied, and an incision was made along the midline. Under a surgical microscope, the right carotid artery was gently separated from surrounding tissue. Two suture threads were placed at the proximal and distal ends of the carotid, and a small incision was made along the carotid wall. A micro-catheter (attached to a 1 ml syringe controlled by a micropump) was inserted and pushed to the entrance of the internal carotid artery. The catheter was secured in place using suture thread. NWL-117 (20 mg/kg) was infused via the micro-catheter using a pump set at 50 μL/min (total volume between 64 μL and 130 μL). After 5 min, blood was collected by intra-cardiac puncture, the mouse was perfused through the heart with ice cold saline for 2–3 min. The brain was removed and hippocampi were dissected and frozen on dry ice and stored. Samples were sent to the Biopharmacy platform at the University of Montreal (Quebec, Canada) for liquid chromatography and tandem mass spectrometry analysis. The integrity of the blood-brain barrier was confirmed by injecting 3% Evan’s blue solution in 20 month old Casp6 mice. […]
smiles,measurement,setting,value
CCC(C)[C@H](NC(=O)[C@H](CCC(=O)O)NC(=O)[C@@H](NC(=O)OCc1ccccc1)C(C)C)C(=O)N[C@H](/C=C/S(C)(=O)=O)CC(=O)O (stereo partly drawn) [NWL-117],toxicity after one month treatment,[1],No obvious toxicity
same,"Synapsin, synaptophysin and PSD95 hippocampal protein levels",[2]; 20 mg/kg i.p.,unchanged
same,"TubΔCasp6 immunostaining, CA1, KI/Cre mice",[2]; 20 mg/kg i.p.,increased non-significantly
same,"TubΔCasp6 immunostaining, CA1, control mice",[2]; 20 mg/kg i.p.,non-significantly decreased TubΔCasp6 levels threefold
same,GFAP levels,[2]; KI/Cre mice hippocampal extracts,did not change
same,p97 cleaved by Casp6 (Δp97),"[2]; KI/Cre mice, versus saline",not different
